Results published in patent US10266482B2, “Long-term memory inducing agent” (NATIONAL UNIVERSITY CORPORATION TOKYO MEDICAL AND DENTAL …, priority 2017, dated 2019).

How the values were obtained:
[1] = test system: young mice; assay: Object recognition test for young mice, AMK application to the scalp; format: in vivo, ICR mice; details: 1 μl of 0.4 mg/μl in dimethyl sulfoxide applied to scalp 30 minutes before one 3-minute acquisition trial
Procedure: Two-month-old male ICR mice (young mice) were used. The rearing room was kept at 22° C. at cycles of 12 hours of light period/12 hours of dark period, and feed and drinking water were given freely. All of the experiments were conducted during the latter 6 hours of the light period.
N(1)-acetyl-5-methoxykynuramine (AMK) was used as a drug. AMK was diluted with dimethyl sulfoxide to result a concentration of 0.4 mg/μl. One μl of the diluent was applied to each individual.
In order to examine the effect of AMK application to the skin, the scalps of the mice were depilated the day before the acquisition trial, AMK or dimethyl sulfoxide as a solvent was applied to 1 cm^2 of the scalp under inhalation anesthesia with isoflurane (Pfizer) 30 minutes before the acquisition trial, left for 5 minute to dry, and then the applied surface was protected with patchProtect (SmartPractice).
Test was conducted in the same manner as “5.3 Object recognition test” in Example 5 except that searching time was 3 minutes in the acquisition trial.
Processing was conducted in the same manner as “5.4 Statistical processing” in Example 5.

[2] = test system: young crickets; assay: Olfactory associative learning test in young crickets (single-time training, memory a day after); format: in vivo, Gryllus bimaculatus
[3] = test system: young crickets; assay: as above; format: in vivo, Gryllus bimaculatus; remark: listed apart in the source
Procedure: Male crickets about one week old (young) or three week old (aged) following molting into adult forms were used. Each of the crickets was placed into a 100 ml beaker three days before the experiment, and deprived of water for 2-3 days to enhance the desire of taking water. As the feed, about 10 pieces of insect feed were placed into the beaker.
A 1-ml syringe was used for smell and reward associative conditioning upon learning/training. The syringe contained water as the reward while a piece of paper (3 mm×3 mm) perfumed with peppermint essence was pierced into the needle to about 1 cm from the tip thereof. In this learning/training, the filter paper on the needle was brought near the antennae of the cricket to allow it to smell for 3 seconds and then a drop of water was put out from the tip of the needle and applied to the mouth of the cricket. When the associative conditioning was conducted for four times, the conditionings were conducted at intervals of 5 minutes.
Smell preference was examined by placing each cricket into a test arena. The arena consisted of a “standby chamber” and a “test chamber”. The floor of the “test chamber” had two holes each with a diameter of 4 cm which were communicated with two smell sources. The smell source was a plastic pot containing filter paper perfumed with essence of a smell (peppermint or vanilla) and covered with a gauze lid. In the preference test, each cricket was placed into the test chamber and allowed to walk freely for 4 minutes to search for the two smell sources. Two minutes after the start of the test, a rotary board having the smell sources was rotated to reverse the positions of the vanilla and the peppermint smells. During the test, the time the cricket spent placing its mouth to the gauze of the smell source was measured as a visiting time to the smell source, and the ratio of the visiting times of the two types of smells (PI value: preference index) was calculated according to the following formula to assess the relative preference to the mint smell. PI value=Tp/(Tp+Tv)×100 • Tp: Searching time for smell associated with the reward (peppermint) • Tv: Searching time for smell not associated with the reward (vanilla)
If the preferences for the two smells are equivalent, PI will be 50. Since crickets inherently prefer vanilla smell over peppermint smell, an average PI value prior to the learning/training is usually 25-35, The preference test was conducted before and after the learning/training to examine whether preference for the smell changes due to the learning/training.
As drugs, melatonin, N(1)-acetyl-N(2)-formyl-5-methoxykynuramine (AFMK), N(1)-acetyl-5-methoxykynuramine (AMK), 6-Hydroxymelatonin (6-HM), L-kynurenine, kynuramine, 8-Bromoguanoine 3′,5′-cyclic monophosphate sodium salt (8 br-cGMP) and cycloheximide (CHX) were used. Melatonin, 6-HM, kynurenine, kynuramine and 8br-cGMP were purchased from SIGMA Aldrich, AFMK was purchased from Cayman Chemical, AMK was purchased from Toronto Research Chemicals and CHX was purchased from Wako Pure Chemical Industries. The drugs other than 8br-cGMP and CHX were first dissolved in ethanol and then diluted with physiological saline for crickets to the respective concentrations. In the administration experiment, 3 μl was administered using a 10-μl syringe to the brain via an aperture opened through a simple eye of the head.
PI values were tested before the training and a day after the training in the same group by a Wilcoxon's-test.

[4] = test system: young mice; assay: Object recognition test (ORT) with young mice; format: in vivo, ICR mice
Procedure: 8-week-old male ICR mice were purchased. Each of the experiment individuals was raised in an individual cage, and adapted to the raising environment for at least a week before use. The rearing room was kept at 22° C. at cycles of 12 hours of light period/12 hours of dark period, and feed and drinking water were given freely. All of the experiments were conducted during the latter 6 hours of the light period.
N(1)-acetyl-5-methoxykynuramine (AMK) was used as a drug. AMK was diluted with physiological saline. In the administration experiment, a dosage of 0.001 mg-1 mg/3.65 ml/kg bw was intraperitoneally administered.
For an object recognition test, two each of two types of objects (height 6 cm×diameter 4 cm, height 7 cm×diameter 7 cm) and an observation box (height 30 cm×width 40 cm×depth 30 cm) were used. This test consisted of an acquisition trial and a test trial, and the experimental individuals were allowed to explore in the observation box 5 minutes a day for 3 days immediately before the experiment in order to adapt the experimental individuals to the observation box. In the acquisition trial, two identical objects were presented to the observation box and the experimental individuals were allowed to search for a minute. When the acquisition trials were conducted for more than one time, the acquisition trials were conducted at one-hour intervals. The test trial was conducted 24 hours, or 4 or 7 days after the last acquisition trial. In the test trials, one of the two identical objects presented in the acquisition trials was exchanged with a different object (new object), and the experimental individuals were allowed to search for 5 minutes. During the test trials, the time that took each of the mice to search for the object was measured, and the ratio of the searching time of the two objects (DI value:discrimination index) was calculated according to the following formula to examine the relative cognitive levels to the new object. DI value (%)=Tn×100/(Tf+Tn)
The object recognition test was a method of evaluating the learning/memory function that utilizes mice's novelty-seeking behavior.
One-sample t-test was employed to compare the DI value with the expected value (50%). In each experiment, when comparison among individual groups was required, an unpaired t-test was employed for comparing two groups while multiple comparisons including one-way analysis of variance followed by Bonferroni test was conducted for comparing three or more groups.

Question: Which “long-term memory formation (DI value, test trial 24 hours later)” value [1] does the source give for COc1ccc(N)c(C(=O)CCNC(C)=O)c1 [Compound 1, N-[3-(2-amino-5-methoxyphenyl)-3-oxopropyl]-acetamide] here?
Answer: Its value is “a long-term memory was formed”.

Question: And the “amount in 1 g of the food per kg of body weight” value ([2]; based on the results from ingesting 1 μM for 10 μl)?
Answer: The value was no less than 2.32 µg.

Question: What about the “long-term memory formation a day after the training by oral administration” value ([2]; drinking 10 μl of aqueous solution (5 μM) 5 minutes after single-time training) of the same compound?
Answer: Its value is “long-term memory was formed”.

Question: What about the “long-term memory formation a day after the training” value ([3]; 8 nM, 3 μl to the brain, 20 minutes after single-time training) of the same compound?
Answer: Its value is “not”.

Question: And the “sufficient concentration relative to the concentration of melatonin” value ([3]; 40 nM AMK versus 5 μM melatonin)?
Answer: Its value is 1/125.

Question: What about the “long-term memory formation a day after the training” value ([3]; 40 nM, 3 μl to the brain, 20 minutes after single-time training) of the same compound?
Answer: Its value is “formed”.

Question: What about the “long-term memory formation a day after the training” value ([3]; 0.2 μM, 3 μl to the brain, 20 minutes after single-time training) of the same compound?
Answer: The value was “formed”.

Question: And the “long-term memory formation a day after the training” value ([3]; 1 μM, 3 μl to the brain, 20 minutes after single-time training)?
Answer: The value was “formed”.

Question: And the “long-term memory formation a day after the training” value ([3]; 1 μM, 3 μl, administered between 20 minutes and 80 minutes after single-time training)?
Answer: Its value is “a long-term memory was formed”.

Question: What about the “long-term memory formation a day after the training” value ([3]; 5 μM, 3 μl to the brain, 20 minutes after single-time training, listed as AMK) of the same compound?
Answer: The value was “long-term memories were formed”.

Question: And the “long-term memory formation a day after the training” value ([3]; 5 μM, 3 μl to the brain, 20 minutes before single-time training)?
Answer: Its value is “long-term memories were formed”.

Question: And the “administration concentration sufficient to form long-term memory” value ([3]; 3 μl to the brain 20 minutes after single-time training)?
Answer: The value was 40 nM.

Question: What about the “timing of administration sufficient to form long-term memory” value ([3]; time following the single-time training, melatonin and AFMK 5 μM, AMK 1 μM) of the same compound?
Answer: Its value is “up to 80 minutes”.

Question: And the “long-term memory formation (DI value, test trial 24 hours later)” value ([4]; 0.001 mg/kg bw i.p. 15 minutes after single-time acquisition trial)?
Answer: The value was “a long-term memory was not formed”.

Question: And the “long-term memory formation (DI value, test trial 24 hours later)” value ([4]; 0.01 mg/kg bw i.p. 15 minutes after single-time acquisition trial)?
Answer: The value was “long-term memories were formed”.

Question: What about the “long-term memory formation (DI value, test trial 24 hours later)” value ([4]; 0.1 mg/kg bw i.p. 15 minutes after single-time acquisition trial) of the same compound?
Answer: Its value is “long-term memories were formed”.

Question: What about the “long-term memory formation (DI value, test trial 24 hours later)” value ([4]; 1 mg/kg bw i.p. 15 minutes after single-time acquisition trial) of the same compound?
Answer: The value was “long-term memories were formed”.

Question: And the “duration of induced long-term memory” value ([4]; 1 mg/kg bw i.p. 15 minutes after single-time acquisition trial, test trials 1, 4 and 7 days later)?
Answer: The value was “at least 7 days”.

Question: And the “long-term memory formation (DI value, test trial 24 hours later)” value ([4]; 1 mg/kg bw i.p., administered from 60 minutes prior to 120 minutes following single-time acquisition trial)?
Answer: Its value is “a long-term memory was formed”.

Question: What about the “time of administration after the acquisition trial at which long-term memory was still induced” value ([4]; 1 mg/kg bw i.p., single-time acquisition trial) of the same compound?
Answer: Its value is “at least 120 minutes”.

Question: And the “administration amount sufficient to form a long-term memory in terms of human (60 kg)” value ([4]; converted from 0.01 mg/kg bw in mice)?
Answer: The value was “about 0.6 mg”.

Question: And the “administration concentration sufficient to form a long-term memory” value ([4]; i.p. 15 minutes after single-time acquisition trial)?
Answer: The value was 0.01 mg/kg bw.
